Reference: patent publication US20150246058A1, “COMPOSITION FOR PREVENTING HAIR LOSS AND ACCELERATING HAIR GROWTH” (RNS CO., LTD., priority 2012, published 2015)

Tested on: 5α-reductase
Test: 5α-reductase inhibitory efficacy: DHT produced in testosterone-stimulated dermal papilla cells (DHT ELISA)
Format: cell-based
Settings: 50 nM testosterone, 24 hours, produced DHT relative to control
Method: After seeding 1 ml of dermal papilla cells (DPCs) by 5×10^5/ml into each well of a 24-well plate, then incubating the same for 24 hours, each of the reaction products prepared according to procedures described in Examples 1 to 72 was added in amounts of 50 μg/ml, 10 μg/ml and 0 μg/ml, respectively, to individual wells. After 1 hour, the wells were subjected to stimulation using 50 nM testosterone (DMSO dissolved). The supernatant was discarded 24 hours after culturing, to thus obtain DPc pellets. A content of dihydrotestosterone (DHT) (DB52021, Hamburg, Germany) was determined by means of enzyme-linked immune-sorbent assay. DPCs cell pellets were seeded in an amount of 100 μL into each of Dihydrotestosterone (DHT) ELISA microtiter strips coated with rabbit anti-DHT antibody, 25 μL of DHT antiserum was seeded in every well, and subjected to a reaction at 2 to 8° C. for 15 to 20 hours, followed by washing the same three times. Thereafter, 100 μL of DHT-HRP enzyme conjugate was seeded in every well and reacted on a shaker at room temperature for 30 minutes, followed by washing the same three times. Furthermore, 100 μL of substrate was seeded in every well and reacted on a shaker at room temperature for 20 to 30 minutes. Then, the product was treated using 100 μL stop solution, and subjected to measurement of absorbance at 450 nm to express an amount of produced DHT by the absorbance (three times repeated). An amount of produced DHT relative to a control was calculated in terms of an inhibitory rate (%), and results thereof are shown in Table 3 below.

| SMILES | 5α-reductase inhibitory rate (%) (sample concentration 10 μg/ml) | 5α-reductase inhibitory rate (%) (sample concentration 50 μg/ml) |
| --- | --- | --- |
| CC1(C)CC[C@]2(C)CC[C@]3(C)C(=CC[C@@H]4[C@@]5(C)CC[C@H](O)C(C)(C)[C@@H]5CC[C@]43C)[C@@H]2C1 [Compound in Example 1, β-amyrin] | 15% | 28% |
| CC(=O)O[C@H]1CC[C@]2(C)[C@H]3CC=C4[C@@H]5CC(C)(C)CC[C@]5(C)CC[C@@]4(C)[C@]3(C)CC[C@H]2C1(C)C [Compound in Example 2, β-amyrin acetate] | 21% | 34% |
| CC(C)=CC(=O)OC1CCC2(C)C(CCC3(C)C2CC=C2C4CC(C)(C)CCC4(C)CCC23C)C1(C)C (stereo not drawn) [Compound in Example 3, β-amyrin 3-methyl-2-butenate] | 28% | 41% |
| CCCCC(CC)C(=O)OC1CCC2(C)C(CCC3(C)C2CC=C2C4CC(C)(C)CCC4(C)CCC23C)C1(C)C (stereo not drawn) [Compound in Example 4, β-amyrin 2-ethylhexanoate] | 36% | 54% |
| CCCCCCCC(=O)OC1CCC2(C)C(CCC3(C)C2CC=C2C4CC(C)(C)CCC4(C)CCC23C)C1(C)C (stereo not drawn) [Compound in Example 5, β-amyrin octanoate] | 41% | 57% |
| CCCCCCCCCCCCCCCC(=O)O[C@H]1CC[C@]2(C)[C@H]3CC=C4[C@@H]5CC(C)(C)CC[C@]5(C)CC[C@@]4(C)[C@]3(C)CC[C@H]2C1(C)C [Compound in Example 7, β-amyrin palmitate] | 53% | 67% |
| C[C@H]1[C@H](C)CC[C@]2(C)CC[C@]3(C)C(=CC[C@@H]4[C@@]5(C)CC[C@H](O)C(C)(C)[C@@H]5CC[C@]43C)[C@H]12 [Compound in Example 10, α-amyrin] | 13% | 29% |
| CC(=O)O[C@H]1CC[C@]2(C)[C@H]3CC=C4[C@@H]5[C@@H](C)[C@H](C)CC[C@]5(C)CC[C@@]4(C)[C@]3(C)CC[C@H]2C1(C)C [Compound in Example 11, α-amyrin acetate] | 31% | 42% |
| CCCCCCCC(=O)OC1CCC2(C)C(CCC3(C)C2CC=C2C4C(C)C(C)CCC4(C)CCC23C)C1(C)C (stereo not drawn) [Compound in Example 12, α-amyrin octanoate] | 35% | 49% |
| CC[C@H](CC[C@@H](C)[C@H]1CC[C@H]2[C@@H]3CC=C4C[C@@H](O)CC[C@]4(C)[C@H]3CC[C@]12C)C(C)C [Compound in Example 14, β-sitosterol] | 11% | 26% |
| CC[C@H](CC[C@@H](C)[C@H]1CC[C@H]2[C@@H]3CC=C4C[C@@H](OC(C)=O)CC[C@]4(C)[C@H]3CC[C@]12C)C(C)C [Compound in Example 15, β-sitosterol acetate] | 21% | 29% |
| CCCCCCCC(=O)OC1CCC2(C)C(=CCC3C2CCC2(C)C(C(C)CCC(CC)C(C)C)CCC32)C1 (stereo not drawn) [Compound in Example 16, β-sitosterol octanoate] | 28% | 39% |
| CCCCCCCCCCCCCCCCCC(=O)O[C@H]1CC[C@@]2(C)C(=CC[C@H]3[C@@H]4CC[C@H]([C@H](C)CC[C@@H](CC)C(C)C)[C@@]4(C)CC[C@@H]32)C1 [Compound in Example 17, β-sitosterol stearate] | 31% | 42% |
| C[C@H]1[C@H](C)CC[C@]2(C(=O)O)CC[C@]3(C)C(=CC[C@@H]4[C@@]5(C)CC[C@H](O)C(C)(C)[C@@H]5CC[C@]43C)[C@H]12 [Compound in Example 18, ursolic acid] | 16% | 29% |
| CCCCCCCC(=O)OC1CCC2(C)C(CCC3(C)C2CC=C2C4C(C)C(C)CCC4(C(=O)O)CCC23C)C1(C)C (stereo not drawn) [Compound in Example 20, ursolic acid octanoate] | 31% | 46% |
